Measurements published in US20240342111A1, “ISOMER-SPECIFIC NEUROPROTECTIVE EFFECT OF NATURAL RESERVATROL” (priority 2021, published 2024).

Tests used:
Cortical neurons = test: Aβ-induced neurite degeneration (MAP2 immunostaining); assay type: cell-based, rat; conditions: for Aβ-induced neurotoxicity (neurite degeneration): pre-treated 50 μM 16 hours, then Aβ 50 nM 24 hours
Method: Cells were then exposed to excitotoxic NMDA (500 μM for 5 minutes) and viability was assessed using MTT assay after 24 hours. […] Rat cortical neurons (DIV 9) were treated with NMDA (50 μM for 5 minutes) and then with cis-RSV for 24 hours. Cells were then exposed to excitotoxic NMDA (500 μM for 5 minutes) and viability was assessed using MTT assay after 24 hours. […] Cell viability was assessed after 48 hours. […] Representative images (scale bar, 20 μm) for cortical neurons following neurite degeneration (MAP2—neurite marker, magenta and DAPI—nuclear marker, blue). […] Neurons were immunoassayed with anti-MAP2 antibody and quantified for neurite degeneration. The data represents mean±SEM for n=3 experiments with significance measured using Student's paired t-test.
Amyloid Beta oligomers were prepared as described previously, see Ahmed, M. et al. Structural conversion of neurotoxic amyloid-beta (1-42) oligomers to fibrils. Nat Struct Mol Biol 17, 561-567, doi:10.1038/nsmb.1799 (2010) and Wang, X. et al. Elevated Neuronal Excitability Due to Modulation of the Voltage-Gated Sodium Channel Nav1.6 by A beta (1-42). Front Neurosci-Switz 10, doi:ARTN 94 10.3389/fnins.2016.00094 (2016). […]
Neurite degeneration index was calculated as described previously, see Jin, M. et al. Soluble amyloid beta-protein dimers isolated from Alzheimer cortex directly induce Tau hyperphosphorylation and neuritic degeneration. […] The samples to be analyzed for neurite degeneration were stained using the standard immunofluorescence procedure with MAP2 (Alexa fluor 647) for neurites and DAPI staining for the nucleus. Neurite degeneration quantification was done using 5-6 regions of interest of equal sizes from each treatment condition. […] To detect degenerated neurites, we used the particle analyzer module of ImageJ and calculated the percentage of the area of the small fragments or particles (size=3-10 μm^2) to the intact neurites (size>25 μm2) with information derived from the binary images. A degeneration index (DI) was calculated as the fragmented neurite area ratio over intact neurite area. […]

TyrRS = test: Immunostaining of neuronal TyrRS under neurotoxic agents (NMDA, MPP+); assay type: cell-based, rat; conditions: 50 μM in combination with 50 μM NMDA or 100 μM MPP+, 4 hours
PARP1 [1] = test: Immunoblot of chromatin fraction for PARP1 and PAR; assay type: cell-based, rat; conditions: 50 μM, 1 hour
[2] = tested on: Rat cortical neurons transfected with TyrRS siRNA; test: TyrRS siRNA knockdown, then excitotoxic NMDA, MTT assay; assay type: cell-based; conditions: 24 hours
Method: Cells viability was assessed using MTT assay. […] Cells were then exposed to excitotoxic NMDA (500 μM for 5 minutes), and viability was assessed using MTT assay after 24 hours.
Primary cortical neuron cultures were obtained from E18 Sprague Dawley rats' cortices, which were dissected in Hibernate E (BrainBits) and dissociated using the Neural Tissue Dissociation kit (Miltenyi Biotec). For this, minced cortices were incubated in a pre-warmed enzyme mix at 37° C. for 15 min; tissues were then triturated and strained using a 40 μm cell strainer. After washing and centrifugation, neurons were seeded in 50 μg/ml poly-D-Lysine (Sigma Aldrich) coated tissue culture plates. NBActive-1 medium (BrainBits) supplemented with 100 U/ml of Penicillin-Streptomycin (Life Technologies), 2 mM L-Glutamine (Life Technologies), and 1 X N21 supplement (R&D Systems) was used as culture medium. Control (AM4635), TyrRS (s443), PARP1 (s130207) siRNA for transfection were obtained from Invitrogen. On 5 DIV, rat cortical neurons were transfected with 75 nM control or TyrRS siRNA using Dharmafect 3 Transfection Reagent. A second transfection was done two days later using 75 nM of TyrRS siRNA, followed by cell collection or assays after another 48 hours. For PARP1 siRNA, on 7 DIV, neurons were transfected with 75 nM siRNA for both control and PARP1 siRNA.
Rat cortical neurons (DIV 10-11) were exposed to different treatments after seeding 20,000 cells/well in 96-well plates. Cell viability was then assessed at 48 hours after the initial exposure to NMDA. 3-[4,5-dimethylthiazole-2-yl]-2,5-diphenyltetrazolium bromide (MTT) assays were used to assess change in cell viability. Cultured rat cortical neurons were incubated with MTT (0.5 mg/mL). […] The percentage of MTT reduced as measured by the difference between the absorbances at 570 nm read in a spectrophotometer (Spectramax 190R Molecular Devices, UK). The percentage of reduction of MTT was calculated comparing the difference of the absorbance at 570 of each sample. […]

PARP1 [3] = test: Immunoblot for auto-PARylation of PARP1; assay type: cell-based, rat; conditions: 15 minutes
RAD51 = test: Immunoblot for RAD51 levels; assay type: cell-based, rat; conditions: 4 hours

Row | SMILES | Aβ-induced neurotoxicity (neurite degeneration) (Cortical neurons) | neurotoxicity-mediated downregulation of neuronal TyrRS (TyrRS) | PARP1 and PAR in the chromatin fraction (PARP1 [1]) | effect of TyrRS knockdown on viability under excitotoxic NMDA ([2]; cis-RSV 50 μM) | auto-PARylation of PARP1 (PARP1 [3]; cis-RSV) | RAD51 levels (RAD51; cis-RSV 5-50 μM) | neurotoxicity (neurite degeneration) by itself (Cortical neurons; 50 μM, without Aβ) | effect of TyrRS knockdown on viability under excitotoxic NMDA ([2]; low dose trans-RSV 5, 10 μM) | effect of TyrRS knockdown on toxic effects under excitotoxic NMDA ([2]; trans-RSV 50 μM) | auto-PARylation of PARP1 (PARP1 [3]; higher dose ≥25 μM) | auto-PARylation of PARP1 (PARP1 [3]; low dose 5 μM) | RAD51 levels (RAD51; low dose 5 μM) | RAD51 levels (RAD51; ≥10 μM)
1 | Oc1ccc(/C=C\c2cc(O)cc(O)c2)cc1 [cis-RSV, cis-resveratrol] | protected against Aβtoxicity | protected against the downregulation of neuronal TyrRS | downregulated PARP1 (170 kDa) and PAR modification in the chromatin fraction | blunted the neuroprotective effect | stimulated the auto-PARylation of PARP1 | upregulated it | – | – | – | – | – | – | –
2 | Oc1ccc(/C=C/c2cc(O)cc(O)c2)cc1 [trans-RSV, trans-resveratrol] | exacerbating Aβtoxicity | exacerbated the downregulation | enhanced the association (‘trapping’) of PARP1 with chromatin | – | – | – | itself induced neurotoxicity | blunted the neuroprotective effect | exacerbated the toxic effects | downregulated the auto-PARylation of PARP1 | stimulated the auto-PARylation of PARP1 | upregulated it | downregulated RAD51 in a dose-dependent manner
